Measured values published in patent US8846914B2, “Compositions to effect neuronal growth” (Neuralstem, Inc., priority 2003, dated 2014).

Assays:
[1] = test system: human hippocampal stem cells; assay: Neurogenesis, TuJ1 immunostaining / Hoechst (primary screen); format: cell-based
Source text: FIG. 2 is a bar graph illustrating an example of a neurogenesis profile of compounds selected from primary screening. After seven days of compound treatment, the cells were stained with the neuron-specific anti-tubulin IIIb antibody. TuJ1, for neurons and Hoechst for all cell nuclei. Shown are the relative ratio of neuron: total cells for each compound over the vehicle control in percentage. Typical ratio for vehicle control is 40-50% neurons. The ratio can change by either increased differentiation of stem cells to neurons, decreased proliferation of astrocytes, or increased proliferation of neuronal progenitors.
FIG. 3 is a bar graph illustrating an example of a neurogenesis profile of compounds selected from primary screening. After seven days of compound treatment, the cells were stained with TuJ1 for neurons. The number of TuJ1+ neurons per area was quantified and expressed as a relative value to the vehicle treated control.
The final neuron number is detected by immunostaining of the culture with antibodies against neurons and is quantified by counting of the immunopositive neurons and/or by measuring the staining intensity. Therefore, after seven days of compound treatment, the cells are stained with the neuron-specific anti-tubulin IIIb antibody, TuJ1, for neurons and Hoechst for all cell nuclei. The number of TuJ1+ neurons per area is quantified and expressed as a value relative to the vehicle-treated control of Hoechst-stained cells. In this regard, the medium is removed from the wells by decanting and blotting the plates on paper towels. The cells are then fixed in 100 μl of 4% paraformaldehyde per well for thirty minutes at room temperature. The cells are washed three times with 400 μl per well of phosphate-buffered saline (PBS) at pH 7.5 for approximately ten minutes per wash. The plates are then stored at 4° C. in PBS or used immediately for staining.
The cells are subsequently stained with antibodies against neuron-specific antigens according to standard procedures. The staining process includes decanting the PBS and blocking the cells with 100 μl of 5% Normal Goat Serum (NGS) in PBS for one hour at room temperature. The NGS/PBS is decanted and the plates are blotted on a paper towel. The cells are then permeabilized with 0.1% Triton X-100 in PBS for 30 minutes at room temperature.
Typical neuron-specific antigens include Type III-beta tubulin and MAP-2c. The total cell number in each well was quantified by staining the cultures with a nuclear dye such as DAPI or Hoechst according to standard procedures. Therefore, once the cells are permeabilized, 20 μl of TuJ1, monoclonal antibody against neuronal class 111 β-tubulin (CoVance (BabCo) MMS-435P) and 32 μl of anti-GFAP polyclonal (DAKO Z0334) are added to and mixed of PBS with 5% NGS. Final dilutions of TuJ1 and anti-GFAP are 1:400 and 1:250, respectively. 90 μl of the antibody solution is added to each well except two eleventh column. 90 μl of PBS/5% NGS is added to the eleventh column and no cells are added to the twelfth column. The plate(s) are sealed with parafilm and incubated at 4° C. overnight.
After incubating the cells overnight, the antibody solution is decanted and 200 μl of PBS/0.1% Triton X-100 is added to the wells. The plate(s) are placed on a shaker and incubated at room temperature with gentle shaking for ten minutes. The cells are again washed with the PBS/Triton X-100 solution another two times.
Following staining with TuJ1 and anti-GFAP, 20 μl of Alexa Fluor 488 labeled goat anti-moose IgG (H+L) (Molecular Probes A-11001) and 100 μl of LRSC-IgG, goat anti-rabbit (Jackson Immune 111-295-144) is added and mixed with 10 ml of PBS/5% NGS. 100 μl of the resulting antibody solution is added to each well. The plate(s) are covered with foil and incubated with gentle shaking for up to one hour at room temperature. The cells are again washed as described above with PBS and an Triton X-100. […]

[2] = test system: human hippocampal stem cells; conditions: positive control; as described in U.S. Ser. No. 10/728,652; cited from earlier work

Row | Compound | Activity in primary in vitro neurogenesis screen [1] | Increase of the number of neurons and glia [2]
1 | COc1ccc(C2CNC(=O)C2)cc1OC1CCCC1 (centres unmarked) [Rolipram, reference compound] | effective | –
2 | LIF: leukemia inhibitory factor (LIF), a cytokine growth factor, positive control | – | two to three-fold
